From patent US9238014B2, “Pharmaceutical composition for treating alcohol dependency” (priority 2009, dated 2016)
Structures can show the parent of a compound that is named as a salt.

System: male mouse of the C57BL/6J line
Experiment: Alcohol/water preference (alcohol consumption) after forced alcoholization in mice
Assay type: in vivo
Parameters: key to Alcohol/Water preference index (Pref.), Mean / Alcohol/Water preference index (Pref), Mean: Pref = (Alcohol−Water)/(Alcohol+Water); >0 alcohol, <0 water preference
Settings: for Alcohol/Water preference index (Pref), Mean: Example 2, Table D, n = 9; for Alcohol/Water preference index (Pref.), Mean: Experiment A, single agent 1 mg/kg injected before session, n = 6; for effect on alcoholic preference (in words): on this model and at the doses used, vs saline control, significant if p≦0.05; for effect on alcohol consumption (in words): same model and same doses, administered separately or in combination as stated
Protocol: All the products used for the treatments are dissolved in saline (0.9% NaCl) so that the injection volume is 10 ml/kg of body weight.
The animals are kept in their cage throughout the experiment. They are subjected to forced alcoholization, with 10% alcohol as the only drink, for 15 days. They are then returned to normal conditions with water to drink.
Different groups of mice are constituted depending on the treatments: controls (injected with saline), prazosin 1 mg/kg, cyproheptadine 1 mg/kg, prazosin 1 mg/kg+cyproheptadine 1 mg/kg, prazosin 0.5 mg/kg+cyproheptadine 1 mg/kg,
The tests begin 24 hours after forced alcoholization is stopped. They proceed during the first two hours of darkness (period of activity), during which the animals have access to a feeder with water and a feeder with alcohol. The amounts of water and of alcohol consumed are measured after said two hours.
Several sessions of measuring the consumption of water and of alcohol are carried out. For the first 2 sessions (S1-S2) the animals receive an injection of saline; they receive the treatments (prazosin, cyproheptadine, prazosin+cyproheptadine) or saline (for the control group) in the next sessions (T1, T2, T3). The treatments are carried out 10 minutes before each session.
The Alcohol/Water preference index (Pref.) is calculated as follows: Pref.=(Consumption Alcohol−Water)/(Consumption Alcohol+Water)
0<Pref.≦1: Preference for alcohol
Pref.=0: No preference alcohol vs water
−1≦Pref.<0: Preference for water (i.e. aversion to alcohol)
During the sessions for measuring alcohol consumption, the animals receive the treatments 30 minutes before said measurement.
The results are expressed in mean value and standard error of mean (SEM). The preference indices (Pref) of the treated groups are compared with that of the control group by the bilateral Student t-test for independent groups. The values shown (p vs Con) are the probabilities for the difference between treated group and control group being due to chance. A difference is regarded as statistically significant if p≦0.05.
The cyproheptadine/alfuzosin, cyproheptadine/terazosin and cyproheptadine/tamsulosin combinations were tested in experimental conditions identical to those described in example 1 above and using the same model.

[1] = alpha1 antagonist alone 0.5 mg/kg, treatment session T1
[2] = alpha1 antagonist alone 0.5 mg/kg, treatment session T2
[3] = alpha1 antagonist alone 0.5 mg/kg, treatment session T3

CN1CCC(=C2c3ccccc3C=Cc3ccccc32)CC1 [Cyproheptadine, 4-(5H-dibenzo[a,d]cyclohepten-5-ylidene)-1-methylpiperidine hydrochloride]
Alcohol/Water preference index (Pref), Mean (cyproheptadine alone 1 mg/kg, treatment session T1): 0.91
Alcohol/Water preference index (Pref), Mean (cyproheptadine alone 1 mg/kg, treatment session T2): 0.76
Alcohol/Water preference index (Pref), Mean (cyproheptadine alone 1 mg/kg, treatment session T3): 0.81
Alcohol/Water preference index (Pref.), Mean (treatment session T1): 0.92
Alcohol/Water preference index (Pref.), Mean (treatment session T2): 0.82
Alcohol/Water preference index (Pref.), Mean (treatment session T3): 0.82
effect on alcoholic preference (in words): do not have a significant effect
effect on alcohol consumption (in words) (hydrochloride): do not have an effect
effect on alcohol consumption (in words) (listed as cyproheptadine, hydrochloride): do not have any effect

CCOc1ccccc1OCCN[C@H](C)Cc1ccc(OC)c(S(N)(=O)=O)c1 [Tamsulosin, (R)-5-(2-(2-(2-ethoxyphenoxy)ethylamino)propyl)-2-methoxybenzenesulfonamide]
Alcohol/Water preference index (Pref), Mean [1]: 0.68
Alcohol/Water preference index (Pref), Mean [2]: 0.79
Alcohol/Water preference index (Pref), Mean [3]: 0.77
effect on alcohol consumption (in words): do not have an effect

COc1cc2nc(N(C)CCCNC(=O)C3CCCO3)nc(N)c2cc1OC (centres unmarked) [Alfuzosin, N-[3-[(4-amino-6,7-dimethoxy-quinazolin-2-yl)-methyl-amino]propyl]tetrahydrofuran-2-carboxamide]
Alcohol/Water preference index (Pref), Mean [1]: 0.59
Alcohol/Water preference index (Pref), Mean [2]: 0.62
Alcohol/Water preference index (Pref), Mean [3]: 0.63
effect on alcohol consumption (in words): do not have an effect

COc1cc2nc(N3CCN(C(=O)C4CCCO4)CC3)nc(N)c2cc1OC (centres unmarked) [Terazosin, 6,7-dimethoxy-2-[4-(tetrahydrofuran-2-ylcarbonyl)piperazin-1-yl]quinazolin-4-amine]
Alcohol/Water preference index (Pref), Mean [1]: 0.64
Alcohol/Water preference index (Pref), Mean [2]: 0.75
Alcohol/Water preference index (Pref), Mean [3]: 0.72
effect on alcohol consumption (in words): do not have an effect

COc1cc2nc(N3CCN(C(=O)c4ccco4)CC3)nc(N)c2cc1OC [Prazosin, 2-[4-(2-furoyl)piperazin-1-yl]-6,7-dimethoxyquinazolin-4-amine]
Alcohol/Water preference index (Pref.), Mean (treatment session T1): 0.78
Alcohol/Water preference index (Pref.), Mean (treatment session T2): 0.57
Alcohol/Water preference index (Pref.), Mean (treatment session T3): 0.72
effect on alcoholic preference (in words): do not have a significant effect
effect on alcohol consumption (in words): do not have any effect
